Laboratory results: patent US20060205755A1, “Novel farnesyl protein transferase inhibitors as antitumor agents” (Schering Corporation, priority 2004, published 2006)

Experiments:
[1] = tested on: Human tumor cells; assay: Soft Agar Assay (anchorage-independent growth, colony count); format: cell-based; details: colony outgrowth 10-16 days at 37° C.
Method: Anchorage-independent growth is a characteristic of tumorigenic cell lines. Human tumor cells can be suspended in growth medium containing 0.3% agarose and an indicated concentration of a farnesyl transferase inhibitor. The solution can be overlayed onto growth medium solidified with 0.6% agarose containing the same concentration of farnesyl transferase inhibitor as the top layer. After the top layer is solidified, plates can be incubated for 10-16 days at 37° C. under 5% CO2 to allow colony outgrowth. After incubation, the colonies can be stained by overlaying the agar with a solution of MTT (3-[4,5-dimethyl-thiazol-2-yl]-2,5-diphenyltetrazolium bromide, Thiazolyl blue) (1 mg/mL in PBS). Colonies can be counted and the IC50's can be determined.

[2] = target: purified human farnesyl protein transferase (Homo sapiens, UniProt P49354+P49356); assay: FPT activity: transfer of [3H] farnesyl from [3H] farnesyl pyrophosphate to biotinylated H-ras peptide (SPA); format: biochemical; details: 0.03 nM enzyme, 37° C., 60 minutes
Method: FPT activity was determined by measuring the transfer of [^3H] farnesyl from [^3H] farnesyl pyrophosphate to a biotinylated peptide derived from the C-terminus of H-ras (biotin-CVLS). The reaction mixture contains: 50 mM Tris pH7.7, 5 mM MgCl2, 5 μM Zn^++, 5 mM DTT, 0.1% Triton-X, 0.05 μM peptide, 0.03 nM purified human farnesyl protein transferase, 0.180 μM [^3H] farnesyl pyrophosphate, plus the indicated concentration of tricyclic compound or vehicle control in a total volume of 100 μl. The reaction was incubated in a Vortemp shaking incubator at 37° C., 45 RPM for 60 minutes and stopped with 150 μl of 0.25 M EDTA containing 0.5% BSA and 1.3 mg/ml Streptavidin SPA beads. Radioactivity was measured in a Wallach 1450 Microbeta liquid scintillation counter. Percent inhibition was calculated relative to the vehicle control.

| IC50 [1] [nM] | IC50 [2] [nM] | SMILES |
| --- | --- | --- |
| ≥ 9 | – | Cn1cncc1C(NC(=O)OC1(C)CC1)C1=Cc2cccnc2C(C2CCN(C(=O)OC3(C)CC3)CC2)c2ccc(Cl)cc21 (single isomer, unassigned) [Example 4] |
| ≥ 9 | – | Cn1cncc1C(NC(=O)OC1(C)CC1)C1=Cc2cccnc2C(O)(C2CCN(C(=O)OC(C)(C)C)CC2)c2ccc(Cl)cc21 (centres unmarked) [Example 5] |
| – | 0.9 | Cn1cncc1C(NC(=O)OC1(C)CC1)C1=Cc2cccnc2C(=C2CCN(C(=O)OC3(C)CC3)CC2)c2ccc(Cl)cc21 (centres unmarked) [Example 2] |
| ≥ 9 | – | Cn1cncc1C(NC(=O)OC1(C)CC1)C1=Cc2cccnc2C(O)(C2CCN(C(=O)OC3(C)CC3)CC2)c2ccc(Cl)cc21 (centres unmarked) [Example 6] |
| ≥ 9 | – | Cn1cncc1C(NC(=O)OC1(C)CC1)C1=Cc2cccnc2C(=C2CCN(C(=O)OC(C)(C)C)CC2)c2ccc(Cl)cc21 (centres unmarked) [Example 1] |
